Values quoted from earlier work as cited in paper PMC7854658, “Structural basis for ligand recognition of the neuropeptide Y Y2 receptor” (Nature Communications, 2021).

Experiments:
[1] = test system: opioid and adrenergic receptors; design: method as in Brothers, S. P. et al., Mol. Pharmacol. 77:46–57, 2010; conditions: ref Brothers, S. P. et al., Mol. Pharmacol. 77:46–57, 2010; cited from earlier work
[2] = design: method as in Brothers, S. P. et al., Mol. Pharmacol. 77:46–57, 2010; conditions: ref Brothers, S. P. et al., Mol. Pharmacol. 77:46–57, 2010; cited from earlier work

## N=C(N)NCCC[C@H](NC(=O)CC1(CC(=O)N2CCN(C3c4ccccc4NC(=O)c4ccccc43)CC2)CCCC1)C(=O)NCCn1c(=O)n(-c2ccccc2)n(-c2ccccc2)c1=O (some centres unmarked) [BIIE0246]
[1]
  Affinities at opioid and adrenergic receptors: submicromolar
[2]
  Blood-brain-barrier permeability: poor
